From PubChem BioAssay (NCI)
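Cells were grown in 96-well plates and exposed to each compound for 48 hours at five concentrations; endpoints were interpolated linearly between bracketing concentrations, or set to the highest concentration if not reached. Definition used: TGI = concentration required for complete inhibition of growth.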

Legend:
Assay in all cases: NCI-60 cell line screen, 48 h
[1] = system: NCI-H522 lung
[2] = system: HOP-62 NSCLC
[3] = system: NCI-H23 lung
[4] = system: LOX IMVI melanoma
[5] = system: UACC-62 melanoma
[6] = system: SK-MEL-5 melanoma
[7] = system: SF-295 CNS
[8] = system: M19-MEL melanoma
[9] = system: U251 CNS
[10] = system: KM12 colon
[11] = system: IGROV1 ovarian
[12] = system: NCI-H226 lung
[13] = system: MALME-3M melanoma
[14] = system: SNB-19 CNS
[15] = system: RPMI-8226 leukemia
[16] = system: NCI-H460 lung
[17] = system: M14 melanoma
[18] = system: RXF 393 renal
[19] = system: MCF7 breast
[20] = system: DU-145 prostate

| SMILES | TGI [1] [µM] | TGI [2] [µM] | TGI [3] [µM] | TGI [4] [µM] | TGI [5] [µM] | TGI [6] [µM] | TGI [7] [µM] | TGI [8] [µM] | TGI [9] [µM] | TGI [10] [µM] | TGI [11] [µM] | TGI [12] [µM] | TGI [13] [µM] | TGI [14] [µM] | TGI [15] [µM] | TGI [16] [µM] | TGI [17] [µM] | TGI [18] [µM] | TGI [19] [µM] | TGI [20] [µM] |
| --- | --- | --- | --- | --- | --- | --- | --- | --- | --- | --- | --- | --- | --- | --- | --- | --- | --- | --- | --- | --- |
| O=c1ccn(/C=C/C(O)C(O)CO)c(=O)[nH]1 (stereo unspecified) | > 100 | > 100 | > 100 | > 100 | > 100 | > 100 | > 100 | > 100 | > 100 | 40.9 | > 100 | > 100 | > 100 | > 100 | > 100 | – | – | – | – | – |
| CC(C)N(C(=O)C12C3C4C1C1C2C3C41C(=O)N(C(C)C)C(C)C)C(C)C (stereo unspecified) | > 50 | > 50 | > 50 | > 50 | > 50 | > 50 | > 50 | > 50 | > 50 | > 50 | > 50 | > 50 | > 50 | > 50 | > 50 | > 50 | > 50 | – | – | – |
| CN(C)CC(/C(Cc1ccccc1)=N\NC(=S)NN)c1ccccc1 (stereo unspecified) | > 100 | > 100 | > 100 | > 100 | > 100 | – | > 100 | > 100 | > 100 | > 100 | > 100 | > 100 | > 100 | > 100 | > 100 | > 100 | > 100 | > 100 | – | – |
| CSc1ccc2c(cc1=O)C(NC(=O)c1ccc(C#N)cc1)CCc1cc(O)c(O)c(O)c1-2 (stereo unspecified) | 40.3 | > 100 | 71.3 | – | 46.3 | 71.5 | 74.7 | 39 | 45.3 | > 100 | – | 59.1 | > 100 | > 100 | – | 73.3 | 89.6 | – | – | – |
| Nc1nc2c(ncn2CCCC(c2ccccc2)P(=O)(O)O)c(=O)[nH]1 (stereo unspecified) | > 100 | > 100 | > 100 | > 100 | > 100 | > 100 | > 100 | > 100 | > 100 | > 100 | > 100 | – | > 100 | > 100 | > 100 | > 100 | > 100 | – | – | – |
| C/C(N=NS(=O)(=O)c1ccc(C)cc1)=C1\C=CC=CN1O | > 100 | > 100 | > 100 | – | > 100 | > 100 | > 100 | > 100 | > 100 | > 100 | > 100 | – | – | > 100 | > 100 | > 100 | > 100 | – | – | – |
| COC1=C2CC(C)CC(OC)C(OC(=O)CCCN)C(C)/C=C(\C)C(OC(N)=O)C(OC)/C=C\C=C(/C)C(=O)NC(=CC1=O)C2=O (stereo unspecified) | 1.96 | 32 | 14.4 | 11.4 | 18.7 | 22.4 | 31.1 | – | 34.5 | 25.7 | 18.6 | 33.3 | 14.9 | 24.9 | 32.5 | 36.5 | 17.6 | 25.6 | 13.2 | 30.5 |
| CS(=O)(=O)C1(Br)S(=O)(=O)OCCOS1(=O)=O | > 100 | > 100 | > 100 | > 100 | > 100 | > 100 | > 100 | > 100 | > 100 | – | > 100 | > 100 | > 100 | > 100 | > 100 | > 100 | > 100 | > 100 | – | – |
| CCOC(=O)/C=C\C(C#N)(C#N)N=Cc1ccsc1 | 2.83 | 36.9 | 29.9 | 15.1 | 32 | 35.4 | 46.6 | – | 33.1 | 36.5 | 28.2 | 34.2 | 5.35 | 55.2 | 4.25 | 43.7 | 9.5 | 5.46 | 8 | 30.7 |
| O=C(O)C12CC3CC(CC(F)(C3)C1)C2 | > 100 | > 100 | > 100 | > 100 | > 100 | > 100 | – | > 100 | > 100 | > 100 | > 100 | – | > 100 | – | > 100 | > 100 | > 100 | > 100 | – | – |
| COc1ccc(/C=C/c2cc(OC)c(OCc3ccccc3)c(OC)c2)cc1 | > 100 | > 100 | > 100 | – | > 100 | – | – | > 100 | > 100 | > 100 | > 100 | > 100 | > 100 | > 100 | > 100 | > 100 | > 100 | – | – | – |
| OC1COC(OCc2ccccc2)C(O)C1O (stereo unspecified) | > 100 | > 100 | > 100 | > 100 | > 100 | > 100 | > 100 | – | > 100 | > 100 | > 100 | > 100 | > 100 | > 100 | > 100 | > 100 | > 100 | > 100 | > 100 | > 100 |
| O=C(O)CC12CC3CC(CC(O)(C3)C1)C2 | 59.4 | > 100 | > 100 | > 100 | > 100 | > 100 | > 100 | – | > 100 | > 100 | > 100 | > 100 | 77.1 | > 100 | > 100 | > 100 | > 100 | > 100 | > 100 | > 100 |
| Cc1ccc(S(=O)(=O)N2CCN(S(=O)(=O)c3ccc(C)cc3)CCN(S(=O)(=O)c3ccc(C)cc3)Cc3cc(Br)c(Br)cc3CN(S(=O)(=O)c3ccc(C)cc3)CC2)cc1 | > 100 | > 100 | > 100 | > 100 | > 100 | > 100 | > 100 | – | > 100 | > 100 | > 100 | > 100 | > 100 | > 100 | > 100 | > 100 | 43.2 | > 100 | > 100 | > 100 |
| O=C(Nc1nc2ncn(CCO)c2c(=O)[nH]1)c1ccccc1 | > 100 | > 100 | – | > 100 | > 100 | > 100 | > 100 | > 100 | > 100 | > 100 | > 100 | > 100 | > 100 | > 100 | > 100 | > 100 | > 100 | > 100 | – | – |
| COC(=O)c1ccc(C=C(C#N)C#N)cc1 | 30.1 | 74.8 | 38.4 | 50.3 | 57.6 | 33.1 | 91.6 | 75.4 | 61.5 | 92.2 | 73.8 | 80.4 | 39.6 | > 100 | 72.6 | > 100 | 32.7 | – | – | – |
| Nc1nc2ncn(CC(O)CO)c2c(=O)[nH]1 (stereo unspecified) | > 100 | > 100 | – | > 100 | > 100 | > 100 | > 100 | > 100 | > 100 | > 100 | > 100 | > 100 | > 100 | > 100 | > 100 | > 100 | > 100 | > 100 | – | – |
| CC(=O)Nc1ccc(S(=O)(=O)NN(C)S(=O)(=O)c2ccc(C)cc2)cc1 | > 100 | > 100 | > 100 | – | > 100 | > 100 | > 100 | > 100 | – | > 100 | > 100 | – | > 100 | > 100 | > 100 | > 100 | > 100 | > 100 | – | – |
| CCCC(=O)OCOC(=O)N(C)N=Nc1ccc(C(=O)OCC)cc1 | 38 | > 100 | 66.4 | 37 | 44.2 | > 100 | 53.8 | – | 84.1 | > 100 | > 100 | > 100 | 43.3 | > 100 | > 100 | 71.8 | > 100 | 33.5 | 45.5 | 64.1 |
| NC(CCCCNCc1ccccc1O)C(=O)O (stereo unspecified) | > 100 | > 100 | > 100 | > 100 | > 100 | > 100 | > 100 | > 100 | > 100 | > 100 | > 100 | > 100 | > 100 | > 100 | > 100 | > 100 | > 100 | – | – | – |
| COc1cccc(C(NC2=NCCC=N2)c2cc3c(cc2O)OCO3)c1O (stereo unspecified) | 40.2 | 55.5 | > 100 | 41.2 | 59 | > 100 | > 100 | – | 31.9 | > 100 | > 100 | > 100 | > 100 | > 100 | 50 | > 100 | > 100 | 63 | 35.3 | > 100 |
| O=C(Nc1ccc2[nH]c(C(=O)N3CC(CCl)c4ccc([N+](=O)[O-])cc43)cc2c1)c1cc2ccccc2o1 (stereo unspecified) | > 1100 | > 1100 | > 1100 | > 1100 | > 1100 | > 1100 | > 1100 | – | > 1100 | > 1100 | > 1100 | > 1100 | > 1100 | > 1100 | > 1100 | > 1100 | > 1100 | > 1100 | > 1100 | > 1100 |
| CC(C)CCC[C@@H](C)[C@H]1CC[C@H]2C3=C[C@H](OS(=O)(=O)O)[C@@]4(O)C[C@@H](O)CC[C@]4(C)[C@@]3(O)CC[C@]12C | > 100 | > 100 | > 100 | > 100 | > 100 | > 100 | > 100 | – | > 100 | > 100 | > 100 | > 100 | > 100 | > 100 | > 100 | > 100 | > 100 | > 100 | > 100 | > 100 |
| O=C(NCCCCCCCN1CCCCCCC1)C(C1CCCCC1)C1CCCCC1 | 30.9 | 14.4 | 28.5 | 26.2 | 10.1 | 5.51 | 24.6 | – | 20.8 | 27.5 | 27.3 | 23.5 | 8.53 | 27.9 | 6.71 | 23.6 | 3.97 | 17 | 19.8 | 27.4 |
| Cc1ccc(S(=O)(=O)N2CC(CCN)c3ccccc32)cc1 (stereo unspecified) | 14.6 | > 29.1 | > 52.6 | 13.5 | 11.7 | 17.7 | 33.5 | – | 18.4 | > 100 | > 53.4 | 11.6 | 17.6 | 31.3 | > 63.6 | > 64.8 | 8.4 | 12.6 | 29.8 | 31.3 |
| COc1cc(-c2cc(=O)c3ccccc3[nH]2)cc(OC)c1OC | > 75 | > 75 | > 75 | > 75 | > 75 | – | > 75 | > 75 | > 75 | > 75 | – | – | > 75 | > 75 | > 75 | > 75 | > 75 | > 75 | – | – |
